Source: patent US9296687B2, “Modulators of HSP70/DnaK function and methods of use thereof” (The Trustees of the University of Pennsylvania, priority 2008, dated 2016)

Assays:
HSP70 [1] = biological target: HSP70 (Homo sapiens, UniProt P0DMV8); assay: Immunoprecipitation-western blot of HSP70 complexes with co-chaperones and substrate proteins; format: cell-based; set-up: endogenous in cells; host or cells: human tumor cell lines (A875, BX-U2OS, U2OS, H1299, MiaPaCa2, HepG2, SKBR3, 293T)
MTT cell viability assay = format: cell-based, human; conditions: human; 20 μM, all tumor cell lines examined; read-out: loss of cell viability
Protocol: (§1) Cell viability assays were performed using an MTT (methyl thiazolyl tetrazolium) colorimetric assay (Roche Applied Science, Cat. No. 11 465 007 001), with the following modifications. Briefly, cells (1×10^4) were plated into 24 well-assay plates in 0.5 ml media and allowed to attach overnight. […] After the incubation period, 50 μl of the water-soluble MTT labeling reagent [3-[4,5-dimethylthiazol-2-yl]-2,5-diphenyl tetrazolium bromid] were added to the cells, and the cells were incubated for 4 h in a humidified chamber at 37° C. with 5% CO2. The metabolized insoluble formazan crystals were then solubilized using 0.5 ml of the Solubilization solution (10% SDS in 0.01M HCl) per well, and the resulting colored solutions were spectrophotometrically quantified at an absorbance of 570 nm.

tumor cell lines = assay: MTT cell viability assay; format: cell-based, human
Protocol: as §1

caspase-3, caspase-8 = assay: Western blot for caspase cleavage; format: cell-based, human
FaDu tumor xenografts = assay: FaDu xenograft, western blot of tumor lysates for p62/SQSTM1 and LC3; format: in vivo, nude mice; conditions: 40 mg/kg intratumoral
FADU cells = assay: Sulforhodamine B colorimetric assay, PES plus cisplatin; format: cell-based, human; conditions: 0-100 μM, 1:1 ratio, 72 h
Protocol: FIG. 20. PES and cisplatin act synergistically to kill cancer cells. […] Experiments were done in triplicate per condition.
Cells (2×10^4) were plated into 96 well plates in 200 μl media and allowed to attach overnight. Cells were then treated with the indicated doses of PES, cisplatin or PES+Cisplatin. After 72 hr incubation period, cells were washed in PBS and 100 μl of ice cold 10% TCA was added for 1 hr at 4° C. Plates were washed four times with slow-running tap water and air-dried at room temperature. 100 μl of 0.057% SRB solution was added to the cells and incubated for 30 min at room temperature. Fixed cells were quickly rinsed four times with 1% acetic acid to remove unbound dye. The protein-bound dye was solubilized using 200 μl of 10 mM Tris base solution (pH 10.5) per well, and the wells were spectrophotometrically quantified at an absorbance of 540 nm. This methodology is identical to that in Shekan et al, JNCI 82:1107 (1990).

[2] = tested on: H1299 and FaDu; 6113 and WI38; assay: MTT assay, tumorogenic versus normal fibroblast cell lines; format: cell-based, human; conditions: various concentrations, 48 hours
Protocol: H1299 cells were seeded on […] and treated with 10 μM PES or 10 μM PES-Cl. DMSO treated cells were used as a control and the proliferation of the H1299 cells was observed over 24 and 48 hours of treatment. The cells were imaged by light microscopy with 20× magnification (FIG. 28). Non-tumorogenic and tumorogenic cells were then treated with PES-Cl to observe its toxicity and effect on proliferation. Two tumorogenic cell lines (H1299 and FaDu) and two normal fibroblast cell lines (6113 and WI38) were seeded on a 96-well plate. The cells were treated with various concentrations of PES and PES-Cl. Forty-eight hours post-treatment MTT assays (Cayman Chemical Company) were performed (FIG. 29).

HSP70 [3] = assay: Capture of HA-tagged HSP70 constructs from transfected H1299 cells with biotinylated compound; format: binding, human; conditions: biotinylated PES
Protocol: FIG. 1. PES Binds to HSP70. (A) Whole cell extracts (WCE) prepared from A875 and BCL-xL over-expressing U2OS human osteosarcoma cells (BX-U2OS) cells, treated with Biotin or Biotin-PES (B-PES), were captured using NeutrAvidin agarose resins. HSP70-family proteins were identified as the major product in the excised band of ˜70 kDa shown in both Coomassie gels. (B and C) WCE were prepared from the cell lines indicated following 24 h treatment with 20 μM Biotin or B-PES and examined for the expression of proteins indicated (left panel of B and C) by western blot analysis; note that different exposure times were used to visualize these proteins. […] (D) In vitro evidence for an interaction between B-PES and HSP70. Full-length human HSP70 and human HSP90 proteins were in vitro translated in the presence of ^35S-methionine, mixed with B-PES coupled to NeutrAvidin resins, and eluted using 100 mM DTT. […] (F) Non-transformed human IMR90 fibroblasts or H1299 lung carcinoma cells were treated with the indicated concentrations of PES for 24 h and cell viability was determined by MTT assays. […]
The free amide group of PES-Cl was biotinylated and added to HA-tagged HSP70-transfected H1299 cells. […] The complexes were pulled down with NeutrAvidin beads, eluted with 100 mM DTT treatments, separated with SDS-PAGE and detected with anti-HA antibody (Millipore) by Western blot. […]

HSP70 (Homo sapiens, UniProt P0DMV8), sequence (P0DMV8 whole entry): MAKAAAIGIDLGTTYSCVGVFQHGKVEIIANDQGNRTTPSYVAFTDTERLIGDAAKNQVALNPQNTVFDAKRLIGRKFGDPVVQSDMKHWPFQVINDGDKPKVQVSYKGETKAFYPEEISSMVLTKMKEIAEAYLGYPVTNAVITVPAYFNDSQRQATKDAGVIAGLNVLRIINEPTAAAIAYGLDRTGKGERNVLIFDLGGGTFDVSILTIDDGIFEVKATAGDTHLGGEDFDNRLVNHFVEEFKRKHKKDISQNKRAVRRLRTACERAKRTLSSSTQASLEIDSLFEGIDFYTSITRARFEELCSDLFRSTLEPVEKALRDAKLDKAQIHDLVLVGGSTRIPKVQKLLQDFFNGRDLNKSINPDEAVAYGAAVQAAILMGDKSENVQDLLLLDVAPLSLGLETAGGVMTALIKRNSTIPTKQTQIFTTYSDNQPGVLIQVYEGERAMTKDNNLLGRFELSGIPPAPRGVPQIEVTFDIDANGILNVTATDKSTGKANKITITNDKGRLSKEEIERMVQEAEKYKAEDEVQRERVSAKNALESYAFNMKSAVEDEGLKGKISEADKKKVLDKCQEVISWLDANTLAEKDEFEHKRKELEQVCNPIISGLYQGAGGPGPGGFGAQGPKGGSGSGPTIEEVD

For `NS(=O)(=O)C#Cc1ccccc1` [PES, 2-Phenylethynesulfonamide], the “abundance of HSP70/BAG-1S complex” value (HSP70 [1]) was “no detectable change”, the “abundance of HSP70/HSP90 complexes” value (HSP70 [1]) was “no change in the abundance of HSP70/HSP90 complexes” and the “HSP70 in association with CHIP, HSP40 and APAF1” value (HSP70 [1]; 20 μM, 24 h) was “less HSP70 in association with CHIP, HSP40 and APAF1”. The “HSP70 interaction with viral T antigen” value (HSP70 [1]; 293 cells with SV40 T antigen, 20 μM) was “interfered with HSP70 and viral T antigen interactions”, the “LAMP2 in a complex with HSP70” value (HSP70 [1]; A875, MiaPaCa2, 20 μM, 24 h) was “significantly reduced the amount of LAMP2 in a complex with HSP70” and the “complexes containing p53 and BAK or HSP70” value (HSP70 [1]; A875 and HepG2 cells, PES 20 μM, with or without cisplatin 50 μM) was “not observed”. For the same compound, the “interaction between HSP70 and BAG-1M” value (HSP70 [1]; H1299, U2OS) was “clear decrease”, the “HSP70 interaction with integrin α5 and integrin β1” value (HSP70 [1]; H1299 cells) was “reduced HSP70 and integrin α5 and integin β1 interactions” and the “interaction between monomeric p62/SQSTM1 and HSP70” value (HSP70 [1]; MiaPaCa2, A875) was “attenuated the interaction”. The cytotoxicity at 20 μM (MTT cell viability assay) was over 50%, the IC50 (tumor cell lines; Homo sapiens, various tumor cell lines, read-out: half maximal concentration to exert cytotoxic effect (IC50)) was 4 to 10 µM and the “cell viability, dose response” value (tumor cell lines; all tumor cell lines examined) was “dose-dependent loss of cell viability”. The “cleavage of caspase-3, caspase-8 or PARP” value (caspase-3, caspase-8; PES 20 μM alone) was “not accompanied by cleavage of caspase-3, caspase-8, or PARP”, the “caspase-cleavage products after cisplatin” value (caspase-3, caspase-8; co-treatment with cisplatin) was “effectively inhibited the appearance of these caspase-cleavage products” and the “LC3 in detergent-insoluble tumor fractions” value (FaDu tumor xenografts) was “accumulated LC3 in the detergent-insoluble fractions”. The “p62/SQSTM1 abundance and oligomerization in tumor” value (FaDu tumor xenografts; 24 and 48 hr) was “increased p62/SQSMT1 abundance and oligomerization”, the “combination effect with cisplatin” value (FADU cells) was “acts synergistically with cisplatin” and the “cell survival, tumorogenic versus non-tumorogenic cells” value [2] was “greater concentration dependent effect on cell survival in tumorogenic cells”. The “binding to HSP70 mutants L558R and Y611S” value (HSP70 [3]) was “failed to bind PES”.
